For experiment [1], the system named is Glo-Response ARE-luc2P HEK293 cell line. The experiment is described as follows: ARE luciferase reporter cell-based assay.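 Also: luciferase signal tracks Nrf2 activation of the ARE once compounds disrupt KEAP1-Nrf2 binding, read with One-Glo reagent, DMSO serving as low control.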 The settings on record: average of results obtained. (In a reporter assay the amount or activity of a reporter protein is the signal.)
Experiment [2] concerns the target Kelch domain of human KEAP1 (321-624 aa) (Homo sapiens (Human), UniProt Q14145). The experiment is described as follows: KEAP1 KELCH ThermoFluor binding assay.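 Also: Ligand-induced melting temperature shift of E. coli-expressed KEAP1 Kelch protein, Kd estimated from concentration-response curves of ΔTm.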 The settings on record: KEAP Kelch […], 1,8-ANS, pH 7.0, average of results obtained, read-out: Tf Kd.
From the text: The shift in the melting point described as a ΔTm is proportional to the concentration and affinity of the ligand. The compound potency may be compared as a rank order of either ΔTm values at a single compound concentration or in terms of KD values, estimated from concentration response curves.
The protein was expressed in E. coli with 6His tag that was cleaved prior to receipt for use.
Protein (KEAP Kelch) and compound solutions were dispensed into black 384-well polypropylene PCR microplates (Abgene) and overlayed with silicone oil (1 μL, Fluka, type DC 200) to prevent evaporation.

What is called EC50 is the concentration that produces a half-maximal response. The term Kd denotes the free concentration of one partner at which half of the binding sites on the other are occupied at equilibrium, for simple one-to-one binding.

A value given as a limit tells only on which side of the number the result lay.

Sequence of Kelch domain of human KEAP1 (321-624 aa) (Q14145 321-624): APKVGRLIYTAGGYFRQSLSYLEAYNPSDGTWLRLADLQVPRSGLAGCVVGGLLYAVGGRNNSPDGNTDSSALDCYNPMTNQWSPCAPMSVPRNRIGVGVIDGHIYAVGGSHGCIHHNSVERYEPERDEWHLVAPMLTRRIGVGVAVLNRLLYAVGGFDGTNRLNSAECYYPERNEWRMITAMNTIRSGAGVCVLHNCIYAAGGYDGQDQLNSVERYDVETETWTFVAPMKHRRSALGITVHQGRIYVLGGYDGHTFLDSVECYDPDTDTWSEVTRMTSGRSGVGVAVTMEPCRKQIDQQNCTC

Turning to `Cc1ccc([C@@H](c2ccn3c(C(F)(F)F)nnc3c2C)C(C)(C)C(=O)O)cc1CN1CC2(CCOCC2)Oc2nc(OCCCO)ccc2S1(=O)=O` (single isomer, unassigned) [Example 50, (*S)-3-(3-((7′-(3-Hydroxypropoxy)-1′,1′-dioxido-2,3,5,6-tetrahydrospiro[pyran-4,4′-pyrido[2,3-b][1,4,5]oxathiazepin]-2′(3′H)-yl)methyl)-4-methylphenyl-2,2′-dimethyl-3-(8-methy-3-trifluoromethyl)-[1,2,4]triazolo[4,3-a]pyridine-7-yl)propanoic Acid], the EC50 in experiment [1] (Homo sapiens, HEK293, 24 h) turned out to be 52 nM. For the same compound, in experiment [2], the Kd is less than 1 nM.
In the case of `Cc1ccc([C@H](c2ccn3c(C(F)(F)F)nnc3c2C)C(C)(C)C(=O)O)cc1CN1CC2(CCOCC2)Oc2nc(OCCCO)ccc2S1(=O)=O` (single isomer, unassigned) [Example 51, (*R) 3-(3-((7′-(3-Hydroxypropoxy)-1′,1′-dioxido-2,3,5,6-tetrahydrospiro[pyran-4,4′-pyrido[2,3-b][1,4,5]oxathiazepin]-2′(3′H)-yl)methyl)-4-methylphenyl-2,2′-dimethyl-3-(8-methyl-3-trifluoromethyl)-[1,2,4]triazolo[4,3-a]pyridine-7-yl)propanoic Acid], it took 646 nM to reach a half-maximal effect in experiment [1] (Homo sapiens, HEK293, 24 h) (EC50). For the same compound, the equilibrium dissociation constant (Kd) in experiment [2] is 0.97 nM.
For `Cc1ccc([C@@H](c2ccn3c(C(F)F)nnc3c2C)C(C)(C)C(=O)O)cc1CN1CC2(CCOCC2)Oc2ncccc2S1(=O)=O` (single isomer, unassigned) [Example 53, (*S)-3-(3-(Difluoromethyl)-8-methyl-[1,2,4]triazolo[4,3-a]pyridin-7-yl)-3-(3-((1′,1′-dioxido-2,3,5,6-tetrahydrospiro[pyran-4,4′-pyrido[2,3-b][1,4,5]oxathiazepin]-2′(3′H)-yl)methyl)-4-methylphenyl)-2,2-dimethylpropanoic Acid], in that order: 3.9 nM and less than 1 nM.
For `Cc1ccc([C@H](c2ccn3c(C(F)F)nnc3c2C)C(C)(C)C(=O)O)cc1CN1CC2(CCOCC2)Oc2ncccc2S1(=O)=O` (single isomer, unassigned) [Example 54, (*R)-3-(3-(Difluoromethyl)-8-methyl-[1,2,4]triazolo[4,3-a]pyridin-7-yl)-3-(3-((1′,1′-dioxido-2,3,5,6-tetrahydrospiro[pyran-4,4′-pyrido[2,3-b][1,4,5]oxathiazepin]-2′(3′H)-yl)methyl)-4-methylphenyl)-2,2-dimethylpropanoic Acid] the same measures were 956 nM and 1790 nM.
For `Cc1cnc([C@@H](c2ccn3c(C(F)(F)F)nnc3c2C)C(C)(C)C(=O)O)cc1CN1CC2(CCOCC2)Oc2ncccc2S1(=O)=O` (single isomer, unassigned) [Example 56, (*S)-3-(4-((1′,1′-Dioxido-2,3,5,6-tetrahydrospiro[pyran-4,4′-pyrido[2,3-b][1,4,5]oxathiazepin]-2′(3′H)-yl)methyl)-5-methylpyridin-2-yl)-2,2-dimethyl-3-(8-methyl-3-(trifluoromethyl)-[1,2,4]triazolo[4,3-a]pyridin-7-yl)propanoic Acid], in that order: 48 nM and less than 1 nM.
Compound `Cc1cnc([C@H](c2ccn3c(C(F)(F)F)nnc3c2C)C(C)(C)C(=O)O)cc1CN1CC2(CCOCC2)Oc2ncccc2S1(=O)=O` (single isomer, unassigned) [Example 57, (*R)-3-(4-((1′,1′-Dioxido-2,3,5,6-tetrahydrospiro[pyran-4,4′-pyrido[2,3-b][1,4,5]oxathiazepin]-2′(3′H)-yl)methyl)-5-methylpyridin-2-yl)-2,2-dimethyl-3-(8-methyl-3-(trifluoromethyl)-[1,2,4]triazolo[4,3-a]pyridin-7-yl)propanoic Acid] showed an EC50 in experiment [1] (Homo sapiens, HEK293, 24 h) of 6660 nM. For the same compound, the equilibrium dissociation constant (Kd) in experiment [2] was 5670 nM.
For `CCn1nnc2c(C)c([C@@H](c3cnc(C)c(CN4CC5(CCOCC5)Oc5ncccc5S4(=O)=O)c3)C(C)(C)C(=O)O)ccc21` (single isomer, unassigned) [Example 59, (*S)-3-(5-((1′,1′-Dioxido-2,3,5,6-tetrahydrospiro[pyran-4,4′-pyrido[2,3-b][1,4,5]oxathiazepin]-2′(3′H)-yl)methyl)-6-methylpyridin-3-yl)-3-(1-ethyl-4-methyl-1H-benzo[d][1,2,3]triazol-5-yl)-2,2-dimethylpropanoic Acid], in that order: 116 nM and 1.2 nM.
For `CCn1nnc2c(C)c([C@H](c3cnc(C)c(CN4CC5(CCOCC5)Oc5ncccc5S4(=O)=O)c3)C(C)(C)C(=O)O)ccc21` (single isomer, unassigned) [Example 60, (*R)-3-(5-((1′,1′-Dioxido-2,3,5,6-tetrahydrospiro[pyran-4,4′-pyrido[2,3-b][1,4,5]oxathiazepin]-2′(3′H)-yl)methyl)-6-methylpyridin-3-yl)-3-(1-ethyl-4-methyl-1H-benzo[d][1,2,3]triazol-5-yl)-2,2-dimethylpropanoic Acid] the same measures were 12300 nM and 41200 nM.
For `CCn1nnc2c(C)c([C@@H](c3cnc(C)c(CN4CC5(CCOCC5)Oc5ncc(C)cc5S4(=O)=O)c3)C(C)(C)C(=O)O)ccc21` (single isomer, unassigned) [Example 62, (*S)-3-(1-Ethyl-4-methyl-1H-benzo[d][1,2,3]triazol-5-yl)-2,2-dimethyl-3-(6-methyl-5-((8′-methyl-1′,1′-dioxido-2,3,5,6-tetrahydrospiro[pyran-4,4′-pyrido[2,3-b][1,4,5]oxathiazepin]-2′(3′H)-yl)methyl)pyridin-3-yl)propanoic Acid] the same measures were 19.2 nM and less than 1 nM.
In the case of `CCn1nnc2c(C)c([C@H](c3cnc(C)c(CN4CC5(CCOCC5)Oc5ncc(C)cc5S4(=O)=O)c3)C(C)(C)C(=O)O)ccc21` (single isomer, unassigned) [Example 63, (*R)-3-(1-Ethyl-4-methyl-1H-benzo[d][1,2,3]triazol-5-yl)-2,2-dimethyl-3-(6-methyl-5-((8′-methyl-1′,1′-dioxido-2,3,5,6-tetrahydrospiro[pyran-4,4′-pyrido[2,3-b][1,4,5]oxathiazepin]-2′(3′H)-yl)methyl)pyridin-3-yl)propanoic Acid], in experiment [1] (Homo sapiens, HEK293, 24 h), the concentration for a half-maximal effect (EC50) amounted to 3280 nM. Moreover, the Kd in experiment [2] was determined as 14500 nM.
For `Cc1cnc2c(c1)S(=O)(=O)N(Cc1cc([C@@H](CC(=O)O)c3ccn4c(C(F)(F)F)nnc4c3C)ccc1C)CC1(CC1)O2` (single isomer, unassigned) [Example 64, (*R)-3-(4-methyl-3-((8′-methyl-1′,1′-dioxidospiro[cyclopropane-1,4′-pyrido[2,3-b][1,4,5]oxathiazepin]-2′(3′H)-yl)methyl)phenyl)-3-(8-methyl-3-(trifluoromethyl)-[1,2,4]triazolo[4,3-a]pyridin-7-yl)propanoic Acid], in that order: 304 nM and less than 1 nM.
Regarding `Cc1ccc([C@H](CC(=O)O)c2ccc3c(nnn3CC3CC3)c2C)cc1CN1CC2(COC2)Oc2ncccc2S1(=O)=O` (single isomer, unassigned) [Example 69, (*S)-3-(1-(Cyclopropylmethyl)-4-methyl-1H-benzo[d][1,2,3]triazol-5-yl)-3-(3-((1′,1′-dioxidospiro[oxetane-3,4′-pyrido[2,3-b][1,4,5]oxathiazepin-2′(3′H)-yl)methyl)-4-methylphenyl)propanoic Acid], the EC50 in experiment [1] (Homo sapiens, HEK293, 24 h) was 28.5 nM. Moreover, the equilibrium dissociation constant (Kd) in experiment [2] is 0.16 nM.
For `Cc1ccc([C@@H](CC(=O)O)c2ccc3c(nnn3CC3CC3)c2C)cc1CN1CC2(COC2)Oc2ncccc2S1(=O)=O` (single isomer, unassigned) [Example 70, (*R)-3-(1-(Cyclopropylmethyl)-4-methyl-1H-benzo[d][1,2,3]triazol-5-yl)-3-(3-((1′,1′-dioxidospiro[oxetane-3,4′-pyrido[2,3-b][1,4,5]oxathiazepin-2′(3′H)-yl)methyl)-4-methylphenyl)propanoic Acid], in that order: 180 nM and 1.9 nM.
The compound `Cc1ccc([C@H](CC(=O)O)c2ccc3c(nnn3C)c2C(F)F)cc1CN1CC2CCCN2c2ncccc2S1(=O)=O` (single isomer, unassigned) [Example 72, (*S)-3-(4-(Difluoromethyl-1-methyl-1H-benzo[d][1,2,3]triazol-5-yl)-3-(3-(((R-5,5-dioxido-7a,8,9,10-tetrahydropyridi[2,3-f]pyrrolo[2,1-d][1,2,5]thiadiazepin-6(7H)-yl)methyl)-4-methylphenyl)propanoic Acid] came in with an EC50 in experiment [1] (24 hours) of 1970 nM. The Kd in experiment [2] was determined as 5.4 nM.
For `Cc1ccc([C@H](CC(=O)O)c2ccc3c(nnn3C)c2C(F)F)cc1CN1CC2CCCN2c2ncccc2S1(=O)=O` (single isomer, unassigned) [Example 73, (*R) 3-(4-(Difluoromethyl-1-methyl-1H-benzo[d][1,2,3]triazol-5-yl)-3-(3-(((R-5,5-dioxido-7a,8,9,10-tetrahydropyridi[2,3-f]pyrrolo[2,1-d][1,2,5]thiadiazepin-6(7H)-yl)methyl)-4-methylphenyl)propanoic Acid] the same measures were 600 nM and 3 nM.
In experiment [1] (Homo sapiens, HEK293, 24 h), `Cc1ccc([C@@H](CC(=O)O)c2ccc3c(nnn3CC3CC3)c2C)cc1CN1CC2(COC2)Oc2ccccc2S1(=O)=O` (single isomer, unassigned) [Example 76, (*R)-3-(1-(cyclopropylmethyl)-4-methyl-1H-benzo[d][1,2,3]triazol-5-yl)-3-(3-((1′,1′-dioxidospiro[benzo[b][1,4,5]oxathiazepin-4,3′-oxetan]-2,(3H)-yl)methyl)-4-methylphenyl)propanoic Acid] registered an EC50 of 136 nM. Also, in experiment [2], the Kd turned out to be 4.8 nM.
In experiment [1] (Homo sapiens, HEK293, 24 h), `Cc1ccc([C@H](CC(=O)O)c2ccc3c(nnn3CC3CC3)c2C)cc1CN1CC2(COC2)Oc2ccccc2S1(=O)=O` (single isomer, unassigned) [Example 77, (*S)-3-(1-(Cyclopropylmethyl)-4-methyl-1H-benzo[d][1,2,3]triazol-5-yl)-3-(3-((1′,1′-dioxidospiro[benzo[b][1,4,5]oxathiazepin-4,3′-oxetan]-2,(3H)-yl)methyl)-4-methylphenyl)propanoic Acid] had a concentration giving a half-maximal response (EC50) of 15.7 nM. For the same compound, the equilibrium dissociation constant (Kd) in experiment [2] came out at 0.42 nM.

Source of the values: US10947252B2, “Inhibitors of KEAP1-Nrf2 protein-protein interaction” (Janssen Pharmaceutica NV, priority 2018, dated 2021).
